# In the supplement of paper PMC10307832:
# Assays:
# Test in all cases: relative viability (nuclei count vs DMSO), 5 days (fraction); higher = more cells survive
# Everolimus + Bortezomib = compound: CO[C@H]1C[C@@H]2CC[C@@H](C)[C@@](O)(O2)C(=O)C(=O)N2CCCC[C@H]2C(=O)O[C@H]([C@H](C)C[C@@H]2CC[C@@H](OCCO)[C@H](OC)C2)CC(=O)[C@H](C)/C=C(\C)[C@@H](O)[C@@H](OC)C(=O)[C@H](C)C[C@H](C)/C=C/C=C/C=C/1C [Everolimus] + CC(C)C[C@H](NC(=O)[C@H](Cc1ccccc1)NC(=O)c1cnccn1)B(O)O [Bortezomib] (partner 0.002 µM)
# In short: (§1)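 Medians of duplicate plates are given as relative viability. That measure is the nuclei count in treated wells divided by the count in vehicle wells. Counts were taken on 4× images of lung cancer cell lines in 1536-well plates, 5 days after pin-tool dosing the day after seeding with one drug alone or a fixed anchor-drug dose plus five library-drug doses (not always all listed) in √10 steps.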
# Everolimus + Tozasertib = compound: CO[C@H]1C[C@@H]2CC[C@@H](C)[C@@](O)(O2)C(=O)C(=O)N2CCCC[C@H]2C(=O)O[C@H]([C@H](C)C[C@@H]2CC[C@@H](OCCO)[C@H](OC)C2)CC(=O)[C@H](C)/C=C(\C)[C@@H](O)[C@@H](OC)C(=O)[C@H](C)C[C@H](C)/C=C/C=C/C=C/1C [Everolimus] + Cc1cc(Nc2cc(N3CCN(C)CC3)nc(Sc3ccc(NC(=O)C4CC4)cc3)n2)n[nH]1 [Tozasertib] (partner 0.1 µM)
# In short: as §1
# Everolimus + AZD7762 = compound: CO[C@H]1C[C@@H]2CC[C@@H](C)[C@@](O)(O2)C(=O)C(=O)N2CCCC[C@H]2C(=O)O[C@H]([C@H](C)C[C@@H]2CC[C@@H](OCCO)[C@H](OC)C2)CC(=O)[C@H](C)/C=C(\C)[C@@H](O)[C@@H](OC)C(=O)[C@H](C)C[C@H](C)/C=C/C=C/C=C/1C [Everolimus] + NC(=O)Nc1cc(-c2cccc(F)c2)sc1C(=O)N[C@H]1CCCNC1 [AZD7762] (partner 0.2 µM)
# In short: as §1
# Everolimus + Decitabine = compound: CO[C@H]1C[C@@H]2CC[C@@H](C)[C@@](O)(O2)C(=O)C(=O)N2CCCC[C@H]2C(=O)O[C@H]([C@H](C)C[C@@H]2CC[C@@H](OCCO)[C@H](OC)C2)CC(=O)[C@H](C)/C=C(\C)[C@@H](O)[C@@H](OC)C(=O)[C@H](C)C[C@H](C)/C=C/C=C/C=C/1C [Everolimus] + Nc1ncn([C@H]2C[C@H](O)[C@@H](CO)O2)c(=O)n1 [Decitabine] (partner 2 µM)
# In short: as §1
Cell Line,relative viability (Everolimus + Bortezomib; first compound 0.01 µM),relative viability (Everolimus + Bortezomib; first compound 0.03162 µM),relative viability (Everolimus + Bortezomib; first compound 0.1 µM),relative viability (Everolimus + Bortezomib; first compound 0.3162 µM),relative viability (Everolimus + Bortezomib; first compound 1 µM),relative viability (Everolimus + Tozasertib; first compound 0.01 µM),relative viability (Everolimus + Tozasertib; first compound 0.03162 µM),relative viability (Everolimus + Tozasertib; first compound 0.1 µM),relative viability (Everolimus + Tozasertib; first compound 0.3162 µM),relative viability (Everolimus + Tozasertib; first compound 1 µM),relative viability (Everolimus + AZD7762; first compound 0.01 µM),relative viability (Everolimus + AZD7762; first compound 0.03162 µM),relative viability (Everolimus + AZD7762; first compound 0.1 µM),relative viability (Everolimus + AZD7762; first compound 0.3162 µM),relative viability (Everolimus + AZD7762; first compound 1 µM),relative viability (Everolimus + Decitabine; first compound 0.01 µM),relative viability (Everolimus + Decitabine; first compound 0.03162 µM),relative viability (Everolimus + Decitabine; first compound 0.1 µM),relative viability (Everolimus + Decitabine; first compound 0.3162 µM),relative viability (Everolimus + Decitabine; first compound 1 µM)
PC-14,0.876,0.84,0.864,0.658,0.713,0.592,0.673,0.499,0.417,0.424,0.201,0.204,0.171,0.145,0.163,0.276,0.26,0.235,0.296,0.293
NCI-H727,0.513,0.546,0.434,0.597,0.52,0.525,0.562,0.505,0.713,0.53,0.482,0.483,0.454,0.565,0.523,0.73,0.594,0.591,0.642,0.617
NCI-H1355,0.611,0.567,0.593,0.592,0.564,0.497,0.398,0.355,0.413,0.32,0.552,0.468,0.456,0.471,0.376,0.353,0.3,0.305,0.318,0.261
NCI-H1975,0.335,0.357,0.317,0.372,0.313,0.658,0.62,0.528,0.64,0.466,0.591,0.571,0.533,0.433,0.531,0.365,0.425,0.327,0.385,0.337
HCC-366,1.02,1.07,0.983,0.878,0.772,0.097,0.102,0.347,0.0539,0.0447,0.371,0.245,0.334,0.29,0.209,0.301,0.226,0.257,0.291,0.212
HOP-62,0.493,0.662,0.399,0.489,0.574,0.441,0.362,0.363,0.41,0.264,0.289,0.346,0.412,0.402,0.37,0.223,0.278,0.195,0.251,0.321
LU99A,0.647,0.599,0.543,0.568,0.614,0.23,0.282,0.252,0.222,0.263,0.213,0.279,0.213,0.246,0.33,0.537,0.514,0.43,0.485,0.566
NCI-H647,0.635,0.59,0.601,0.635,0.693,0.28,0.281,0.198,0.344,0.14,0.249,0.273,0.237,0.207,0.364,0.16,0.157,0.101,0.0533,0.158
A-427,0.783,0.891,0.778,0.742,0.768,0.17,0.164,0.203,0.184,0.19,0.498,0.527,0.587,0.446,0.595,0.436,0.509,0.45,0.486,0.561
NCI-H441,0.364,0.497,0.504,0.457,0.506,0.521,0.643,0.636,0.555,0.54,0.97,1.17,0.717,0.953,1.01,0.257,0.243,0.194,0.261,0.29
NCI-H2126,0.736,0.668,0.66,0.714,0.738,0.64,0.609,0.52,0.637,0.568,0.688,0.598,0.629,0.688,0.703,0.484,0.421,0.452,0.505,0.497
HCC-44,0.978,0.958,0.937,1.08,0.858,1.07,1.07,0.94,0.97,1.19,1.1,1.18,1.03,1.12,1.25,0.933,0.975,0.937,0.954,0.896
NCI-H460,0.827,0.982,0.672,0.881,1.08,0.719,0.698,0.603,0.538,0.569,0.669,0.658,0.657,0.465,0.431,0.498,0.53,0.506,0.369,0.421
NCI-H322M,0.974,0.995,1.01,0.939,0.948,0.416,0.355,0.397,0.421,0.426,0.473,0.39,0.481,0.397,0.43,0.766,0.7,0.585,0.596,0.609
